Test results reported in ChEMBL document CHEMBL5154863, “Design and synthesis of quinolinium-based derivatives targeting FtsZ for antibacterial evaluation and mechanistic study” (Eur J Med Chem, 2022).
Converted amounts (≈) assume the structure as drawn.

Tests used:
Assay type in all cases: functional
Conditions in all cases: time 20-24 hrs
Staphylococcus aureus [1] = test: Antibacterial activity against Staphylococcus aureus ATCC 29213 assessed as inhibition of bacterial growth incubated for 20 to 24 hrs by broth micro dilution method
Staphylococcus aureus [2] = test: Antibacterial activity against methicillin-resistant Staphylococcus aureus ATCC 43300 assessed as inhibition of bacterial growth incubated for 20 to 24 hrs by broth micro dilution method
Staphylococcus aureus [3] = test: Antibacterial activity against methicillin-resistant Staphylococcus aureus ATCC 33592 assessed as inhibition of bacterial growth incubated for 20 to 24 hrs by broth micro dilution method
Staphylococcus aureus [4] = test: Antibacterial activity against methicillin-resistant Staphylococcus aureus ATCC BAA-1720 assessed as inhibition of bacterial growth incubated for 20 to 24 hrs by broth micro dilution method
Staphylococcus aureus [5] = test: Antibacterial activity against vancomycin-intermediate Staphylococcus aureus Mu50 assessed as inhibition of bacterial growth incubated for 20 to 24 hrs by broth micro dilution method
[6] = test system: Staphylococcus epidermidis; test: Antibacterial activity against Staphylococcus epidermidis ATCC 12228 assessed as inhibition of bacterial growth incubated for 20 to 24 hrs by broth micro dilution method
Bacillus subtilis = test: Antibacterial activity against Bacillus subtilis CMCC (B) 63501 assessed as inhibition of bacterial growth incubated for 20 to 24 hrs by broth micro dilution method
Enterococcus faecium [7] = test: Antibacterial activity against Enterococcus faecium ATCC 49624 assessed as inhibition of bacterial growth incubated for 20 to 24 hrs by broth micro dilution method
Enterococcus faecalis = test: Antibacterial activity against Enterococcus faecalis ATCC 29212 assessed as inhibition of bacterial growth incubated for 20 to 24 hrs by broth micro dilution method
Enterococcus faecium [8] = test: Antibacterial activity against vancomycin resistant Enterococcus faecium ATCC 700221 assessed as inhibition of bacterial growth incubated for 20 to 24 hrs by broth micro dilution method
Enterococcus faecium [9] = test: Antibacterial activity against vancomycin-resistant Enterococcus faecium clinical isolate assessed as inhibition of bacterial growth incubated for 20 to 24 hrs by broth micro dilution method
Escherichia coli [10] = test: Antibacterial activity against Escherichia coli ATCC 25922 assessed as inhibition of bacterial growth incubated for 20 to 24 hrs by broth micro dilution method
Escherichia coli [11] = test: Antibacterial activity against Escherichia coli ATCC 8739 assessed as inhibition of bacterial growth incubated for 20 to 24 hrs by broth micro dilution method
Escherichia coli [12] = test: Antibacterial activity against NDM-1 expressing Escherichia coli ATCC BAA2469 assessed as inhibition of bacterial growth incubated for 20 to 24 hrs by broth micro dilution method
Acinetobacter baumannii = test: Antibacterial activity against multi-drug resistant Acinetobacter baumannii ATCC 19606 assessed as inhibition of bacterial growth incubated for 20 to 24 hrs by broth micro dilution method
Pseudomonas aeruginosa = test: Antibacterial activity against […] Pseudomonas aeruginosa ATCC 27853 assessed as inhibition of bacterial growth incubated for 20 to 24 hrs by broth micro dilution method
Klebsiella pneumoniae = test: Antibacterial activity against NDM-1 expressing Klebsiella pneumoniae ATCC BAA 2470 assessed as inhibition of bacterial growth incubated for 20 to 24 hrs by broth micro dilution method

SMILES	MIC (Staphylococcus aureus [1])	MIC (Staphylococcus aureus [2])	MIC (Staphylococcus aureus [3])	MIC (Staphylococcus aureus [4])	MIC (Staphylococcus aureus [5])	MIC [6]	MIC (Bacillus subtilis)	MIC (Enterococcus faecium [7])	MIC (Enterococcus faecalis)	MIC (Enterococcus faecium [8])	MIC (Enterococcus faecium [9])	MIC (Escherichia coli [10])	MIC (Escherichia coli [11])	MIC (Escherichia coli [12])	MIC (Acinetobacter baumannii)	MIC (Pseudomonas aeruginosa)	MIC (Klebsiella pneumoniae)
CN(C)c1ccc(/C=C/c2cc(NCCCO)[n+](C)c3ccccc23)cc1.[I-]	> 64 µg/mL	> 64 µg/mL	64 µg/mL	64 µg/mL	64 µg/mL	64 µg/mL	32 µg/mL	> 64 µg/mL	> 64 µg/mL	64 µg/mL	64 µg/mL	> 64 µg/mL	> 64 µg/mL	> 64 µg/mL	> 64 µg/mL	> 64 µg/mL	> 64 µg/mL
CCCCCNc1cc(/C=C/c2ccc(N(C)C)cc2)c2ccccc2[n+]1C.[I-]	8 µg/mL	8 µg/mL	8 µg/mL	8 µg/mL	8 µg/mL	8 µg/mL	8 µg/mL	8 µg/mL	16 µg/mL	8 µg/mL	8 µg/mL	> 64 µg/mL	> 64 µg/mL	> 64 µg/mL	> 64 µg/mL	> 64 µg/mL	> 64 µg/mL
CN[C@H](CC(C)C)C(=O)N[C@H]1C(=O)N[C@@H](CC(N)=O)C(=O)N[C@H]2C(=O)N[C@H]3C(=O)N[C@H](C(=O)N[C@H](C(=O)O)c4cc(O)cc(O)c4-c4cc3ccc4O)[C@H](O)c3ccc(c(Cl)c3)Oc3cc2cc(c3O[C@@H]2O[C@H](CO)[C@@H](O)[C@H](O)[C@H]2O[C@H]2C[C@](C)(N)[C@H](O)[C@H](C)O2)Oc2ccc(cc2Cl)[C@H]1O [VANCOMYCIN]					32 µg/mL (≈ 22.1 µM)	> 64 µg/mL	0.25 µg/mL (≈ 0.173 µM)		2 µg/mL (≈ 1.38 µM)	1020 µg/mL (≈ 707 µM)	> 64 µg/mL	> 64 µg/mL	> 64 µg/mL	> 64 µg/mL	> 64 µg/mL	> 64 µg/mL	> 64 µg/mL
CCCNc1cc(/C=C/c2ccc(N(C)C)cc2)c2ccccc2[n+]1C.[I-]	> 64 µg/mL	32 µg/mL	> 64 µg/mL	16 µg/mL	32 µg/mL	32 µg/mL	16 µg/mL	32 µg/mL	64 µg/mL	16 µg/mL	16 µg/mL	> 64 µg/mL	> 64 µg/mL	> 64 µg/mL	> 64 µg/mL	> 64 µg/mL	> 64 µg/mL
CN(C)c1ccc(/C=C/c2cc(NCCCc3ccccc3)[n+](C)c3ccccc23)cc1.[I-]	4 µg/mL	4 µg/mL	4 µg/mL	4 µg/mL	4 µg/mL	4 µg/mL	2 µg/mL	4 µg/mL	4 µg/mL	4 µg/mL	4 µg/mL	> 64 µg/mL	> 64 µg/mL	> 64 µg/mL	> 64 µg/mL	> 64 µg/mL	> 64 µg/mL
O=C(O)c1cn(C2CC2)c2cc(N3CCNCC3)c(F)cc2c1=O [CIPROFLOXACIN]	0.25 µg/mL (≈ 0.754 µM)	2 µg/mL (≈ 6.04 µM)		> 64 µg/mL	1 µg/mL (≈ 3.02 µM)	1 µg/mL (≈ 3.02 µM)	0.25 µg/mL (≈ 0.754 µM)	32 µg/mL (≈ 96.6 µM)	4 µg/mL (≈ 12.1 µM)	> 64 µg/mL			< 0.125 µg/mL	> 64 µg/mL		1 µg/mL (≈ 3.02 µM)	> 64 µg/mL
CN(C)c1ccc(/C=C/c2cc[n+](C)c3ccccc23)cc1.[I-]	16 µg/mL					16 µg/mL	64 µg/mL	16 µg/mL	> 64 µg/mL								
CN(C)c1ccc(/C=C/c2ccc3ccccc3[n+]2C)cc1.[I-]	16 µg/mL					16 µg/mL	64 µg/mL	8 µg/mL	> 64 µg/mL								
CC1(C)S[C@@H]2[C@H](NC(=O)[C@H](N)c3ccccc3)C(=O)N2[C@H]1C(=O)O [AMPICILLIN]	> 64 µg/mL	> 64 µg/mL	64 µg/mL (≈ 183 µM)	> 64 µg/mL	0.125 µg/mL (≈ 0.358 µM)	> 64 µg/mL	4 µg/mL (≈ 11.4 µM)	2 µg/mL (≈ 5.72 µM)	1 µg/mL (≈ 2.86 µM)	0.25 µg/mL (≈ 0.715 µM)	> 64 µg/mL		16 µg/mL (≈ 45.8 µM)	> 64 µg/mL	> 64 µg/mL	> 64 µg/mL	> 64 µg/mL
